ChEMBL document CHEMBL4420060, “Combinatorial therapies for the treatment of neoplasias using the opioid growth factor receptor” (2013)
Calls of active or inactive are those of the source. No cut-off for these calls is given here.

Assays:
MIA PaCa-2 = assay: Growth inhibition of human MIAPaCa2 cells assessed as decrease in cell number at 1 uM incubated for 96 hrs by MTS assay relative to control; assay type: functional
UMSCC1 = assay: Growth inhibition of human UM-SCC-1 cells assessed as decrease in cell number at 1 uM by MTS assay relative to control; assay type: functional, cell-based

Row | Structure (SMILES) | growth inhibition (GI) (MIA PaCa-2) | growth inhibition (GI) (UMSCC1)
1 | CC(C)C[C@@H](NC(=O)[C@H](Cc1ccccc1)NC(=O)CNC(=O)[C@@H](C)NC(=O)[C@@H](N)Cc1ccc(O)cc1)C(=O)O | inactive | inactive
2 | CC1(C)SSC(C)(C)[C@@H](NC(=O)[C@@H](N)Cc2ccc(O)cc2)C(=O)NCC(=O)N[C@@H](Cc2ccccc2)C(=O)N[C@H]1C(=O)O | inactive | inactive
3 | CC[C@H](C)C(NC(=O)[C@@H](NC(=O)[C@H](C)NC(=O)[C@H](CC(N)=O)NC(=O)[C@H](CCCCN)NC(=O)[C@H](Cc1ccccc1)NC(=O)[C@H](CC(C)C)NC(=O)[C@@H](NC(=O)[C@@H](NC(=O)[C@H](CC(C)C)NC(=O)[C@@H]1CCCN1C(=O)[C@@H](NC(=O)[C@H](CCC(N)=O)NC(=O)[C@H](CO)NC(=O)[C@H](CCCCN)NC(=O)[C@H](CCC(=O)O)NC(=O)[C@H](CO)NC(=O)[C@@H](NC(=O)[C@H](CCSC)NC(=O)[C@H](Cc1ccccc1)NC(=O)CNC(=O)CNC(=O)[C@@H](N)Cc1ccc(O)cc1)[C@@H](C)O)C(C)O)C(C)C)[C@@H](C)O)[C@@H](C)CC)C(=O)N[C@@H](CCCCN)C(=O)N[C@@H](CC(N)=O)C(=O)N[C@@H](C)C(=O)N[C@@H](Cc1ccc(O)cc1)C(=O)N[C@@H](CCCCN)C(=O)N[C@@H](CCCCCN)C(=O)NCC(=O)N[C@@H](CCC(=O)O)C(=O)O (some centres not stated) | inactive | 
4 | C[C@@H](NC(=O)[C@@H](N)Cc1ccc(O)cc1)C(=O)NCC(=O)N(C)[C@@H](Cc1ccccc1)C(=O)NCCO | inactive | inactive
